Series [1] in a line: Human plasma stability. The class given is in vitro ADME. To be noted: 120 min.
The nature of series [2]: Mouse liver microsome stability. It is filed as in vitro ADME. As to conditions: mouse liver microsomes. On the technique in general: Liver microsomes are a subcellular fraction often used to study metabolism.
A short description of series [3]: Human liver microsome stability. As to conditions: human liver microsomes. It is filed as in vitro ADME.
For series [4] the following is noted: pH 7.4.
Series [5] is described as follows: Mouse plasma stability. The class given is in vitro ADME. As to conditions: 120 min.
The nature of series [6]: In vivo pharmacokinetics in mice. The arrangement: species or system mouse. As to conditions: for clearance: male, CD-1, mouse, plasma, iv, 10 mg/kg; for time until brain level fell below target therapeutic level: mice, single 10 mg/kg IV dose, target 30 ng/g for 11 and 13B, 120 ng/g for 12.

In series [1], “1-(3-(5-cyclopropyl-4-phenyl-4H-1,2,4-triazol-3-yl)propyl)-3-(2-methylcyclohexyl)urea [Compound 3]” returned a Hplasma stability of 98 % @ 120 min. Also, the “t1/2 MLM” value in series [2] is reported as 3 min. Further, in series [3], the “t1/2 HLM” value was 8 min. Further, the Solubility in series [4] is 24. For the same molecule, the Mplasma stability in series [5] is 84 % @ 120 min.

Consider `CC1CCCCC1NC(=O)NCCCc1nnc(C2CC2)n1-c1ccccc1` (centres unmarked) [Compound 2, 1-(3-(5-cyclopropyl-4-phenyl-4H-1,2,4-triazol-3-yl)propyl)-3-(2-methylcyclohexyl)urea], for which the Hplasma stability in series [1] amounted to 95 % @ 120 min. In series [5], this molecule showed a Mplasma stability of 100 % @ 120 min.

One may read the clearance as the rate of elimination divided by the concentration. Regarding `O=C(NCCCCc1ccccc1)NC1CCC(O)CC1` (centres unmarked) [Compound 12, 1-(4-hydroxycyclohexyl)-3-(4-phenylbutyl)urea], in series [6], the clearance came to 29.5 mL/min/kg and the “time until brain level fell below target therapeutic level” value was 1 h.

For `CC1CC(O)CCC1NC(=O)NCCCCc1ccccc1` (centres unmarked) [Compound 11, 1-(4-hydroxy-2-methylcyclohexyl)-3-(4-phenylbutyl)urea], in series [6], the clearance stood at 63.9 mL/min/kg and the “time until brain level fell below target therapeutic level” value was found to be 1 h.

On to `O=C(CCCCCc1ccccc1)N[C@H]1CC[C@H](O)CC1` [Compound 13B, N-(trans-4-hydroxycyclohexyl)-6-phenylhexanamide], for which the “time until brain level fell below target therapeutic level” value in series [6] is reported as “greater than 2 hour”.

The term half-life denotes the time needed for the level to fall by half in the phase considered. As for `CC1CCCCC1NC(=O)NCCSc1nnc(C2CC2)n1-c1ccccc1` (centres unmarked) [Compound 1, 1-(2-((5-cyclopropyl-4-phenyl-4H-1,2,4-triazol-3-yl)thio)ethyl)-3-(2-methylcyclohexyl)urea, reference compound], the Hplasma stability in series [1] is given as 95 % @ 120 min. Moreover, the half-life at 1 μM in series [2] was 2 min. The same molecule displayed a Mplasma stability in series [5] of 94 % @ 120 min.

As for “N-(4-fluoro-4-methylcyclohexyl)-6-phenylhexanamide [Compound 18]”, the “t1/2 MLM” value in series [2] is 2.8 min. Further, in series [3], the “t1/2 HLM” value is reported as 10.2 min.

The values are drawn from PMC7731667 (Journal of medicinal chemistry, 2020).
